{
  "source": "patent US20080015147A1",
  "about": "“Method for inhibiting neuronal cell death” (priority 2006, published 2008)",
  "type_in_all_cases": "cell-based, mouse",
  "key": {"[1]": {"test_system": "N38 cells", "assay": "MTT assay (mitochondrial activity)", "conditions": "for MTT activity (optical density): 48 hrs, 2×10^−7 M", "description": "(§1) The effect of TCAP-1 on cell proliferation at each pH was examined by direct counts using a hemocytometer and indirectly by assessing mitochondrial activity using a colorimetric MTT (3-[4,5-dimethylthiazol-2-yl]-2,5-diphenyl tetrazolium bromide) assay on cultured N38 cells. For hemocytometer counts, the cultures were incubated for 24 and 48 hrs. The cells were suspended using 1 ml of 0.25% Trypsin with EDTA (Gibco-Invitrogen, Burlington, Canada), centrifuged at 1600 RPM for 4 min, and resuspended with PBS. The cells in 50 μl aliquots were vortexed and counted on a hemocytometer.\nA (3-4,5-dimethylthiazol-2-yl]-2,5-diphenyl tetrazolium bromide) MTT assay was conducted using the In Vitro Toxicology Assay Kit: MTT based (Sigma, St. Louis). The cells were cultured for the MTT assay at 24 and 48 hours and were incubated at 37° C. in 5% CO2 for 3 hrs in the presence of MTT 200 μl/2 ml medium. The samples were mixed by shaking the plate horizontally for 30 min. The background absorbance of the multi-well plates was determined at 690 nm and subtracted from the 570 nm measurement."}, "[2]": {"test_system": "superoxide radical", "assay": "Superoxide radical measured by conversion of a soluble tetrazolium salt", "conditions": "48 hours", "description": "The presence of the superoxide radical was measured indirectly by the conversion of a soluble tetrazolium salt in cells after 48 hours (FIG. 8A)."}, "[3]": {"test_system": "cleaved caspase 3", "assay": "Caspase 3 cleavage by immunoblot", "conditions": "48 hr; any pH condition for TCAP-1", "description": "Detection of caspase 3 cleavage was determined at 48 hrs. The samples at each pH and control (see above) were lysed using total protein isolation lysis buffer (described above). An aliquot of 25 μl of each sample was combined with 25 μl of 2×20% sodium dodecyl sulphate (SDS) sample buffer and loaded onto a 4-10% HCL-Tris pre cast polyacrylamide gel (BioRad, Mississauga). The gel was run at 200 v for 35 min and proteins were electrotransfered to a Hybond-C nitrocellulose membrane (Amersham, Baie d'Urfé) for 75 min at 100 v. After transfer, the membrane was washed with 10 ml of PBS with 0.05% Tween 20 (PBST) for 5 min at room temperature (RT) and the membrane was incubated in 10 ml of PBST-milk for one hour at RT followed by 3 times for 5 min washes with 10 ml of PBST. The membrane was then incubated with cleaved caspase 3 primary antibody (Cell Signaling Technology, Beverly) at a titre of 1:500 in 6 ml of PBST-milk with gentle agitation overnight at 4° C. The membranes were washed 3 times for 5 min with 10 ml of PBST followed by membrane incubation with anti-rabbit horseradish peroxidase (HRP)-conjugated secondary antibody (Amersham, Baie d'Urfé) at 1:3000 in 6 ml of PBST-milk with gentle agitation for 1 hr at RT. […]"}, "[4]": {"test_system": "superoxide dismutase", "assay": "Superoxide dismutase western blot"}, "[5]": {"test_system": "N38 cells", "assay": "Cell proliferation by direct hemocytometer counts", "conditions": "for total cell numbers relative to vehicle: 48 hrs, 2×10^−7 M", "description": "At 24 and 48 hrs, the medium was replaced with medium buffered at pH 6.8, 7.4, 8.0 or 8.4. Half of the cell groups received (2×10^−7 M) TCAP-1, whereas the other half received phosphate buffered saline (PBS) pH 7.4 containing 8 g NaCl, 0.2 g KCl, 1.4 g Na2HPO4, 0.2 g KH2PO4 in. 800 mL ddH2O. For all groups, 4 replicates were run. Digital pictures were taken at 24, 48 and 72 hrs using an Olympus IX&1 inverted microscope at a magnification of 200× and analyzed using LabWorks 4.0 Image Acquisition and Analysis software (UltraViolet Products Ltd).\nas §1"}, "[6]": {"test_system": "Phospho-Akt", "assay": "Phospho-Akt western blot", "conditions": "all pH treatments; 48 hrs", "description": "Western blots using Akt and phosphorylated Akt (P-Akt) primary antibodies were conducted on all conditions of the cultured N38 cells to determine whether TCAP was preventing cell death by phosphorylation. The same western blot procedure outlined above was repeated with an Akt primary antibody (Cell Signalling, Beverly) at a titer of 1:500, followed by membrane incubation with anti-rabbit HRP-conjugated secondary antibody (Amersham, Baie d'Urfé) at 1:3000, followed by exposure on Kodak X-OMAT Blue film (Perkin Elmer Canada Inc, Vaudreuil-Dorion) for 30 min. Phospho Akt expression at 48 hrs was determined using the method described above with a PAkt primary antibody (Cell Signalling 9271) at 1:1000 followed by membrane incubation with anti-rabbit HRP-conjugated secondary antibody (Amersham, Baie d'Urfé) at 1:2000 followed by exposure on Kodak X-OMAT Blue film (Perkin Elmer Canada Inc, Vaudreuil-Dorion) overnight. Cultured N38 cells were serum-starved for 48 hours in order to induce phosphorylation and following the same protocol above were loaded as a control. Total optical density of the blots, were quantified using LabWorks 4.0 Image Acquisition and Analysis Software from Ultra-Violet Products Ltd. (UVP)."}, "[7]": {"test_system": "N38 cells", "assay": "Cell viability by Trypan Blue uptake", "conditions": "48 hrs", "description": "The proportion of viable cells in the samples was determined by measuring Trypan Blue uptake. At 48 hrs, the cells from the four pH treatments were suspended using 1 ml of Trypsin EDTA, centrifuged at 1600 RPM for 4 min and resuspended in 1 ml of BSS (Hank's Balanced Salt Solution) (Sigma, St. Louis). An aliquot of 0.5 ml of 0.04% Trypan Blue solution was transferred to a 1.5 ml tube, […] of BSS was added to 0.2 ml of the cell suspension; the samples were mixed thoroughly and the cell suspension-Trypan Blue mixture was allowed to stand for 10 minutes and then counted on a hemocytometer. Separate counts were kept for both viable and non viable cells."}},
  "note": "“Also recorded” adds a separate entry of the source.",
  "data": [
    {"substance": "teneurin C-terminus associated peptide [TCAP-1]", "values": [
      {"measurement": "MTT activity", "setting": "[1]; pH 6.8", "value": "did not induce a significant effect on MTT activity"},
      {"measurement": "MTT activity", "setting": "[1]; pH 7.4", "value": "did not induce a significant effect on MTT activity"},
      {"measurement": "MTT activity (optical density)", "setting": "[1]; pH 8.0", "value": "significant increase in optical density; also recorded: increased the number of viable cells"},
      {"measurement": "MTT activity (optical density)", "setting": "[1]; pH 8.4", "value": "significant increase in optical density; also recorded: increased the number of viable cells"},
      {"measurement": "decrease in absorbance of the substrate (proportional to superoxide radical activity)", "setting": "[2]; pH 8.0, p<0.05", "value": 40, "unit": "%"},
      {"measurement": "decrease in absorbance of the substrate (proportional to superoxide radical activity)", "setting": "[2]; pH 8.4, p<0.01", "value": 60, "unit": "%"},
      {"measurement": "caspase 3 cleavage product (17/19 kDa) on western blot", "setting": "[3]", "value": "could not be observed"},
      {"measurement": "superoxide dismutase protein expression", "setting": "[4]; pH 6.8", "value": "no significant differences in the expression of the superoxide dismutase protein"},
      {"measurement": "superoxide dismutase protein expression", "setting": "[4]; pH 7.4", "value": "no significant differences in the expression of the superoxide dismutase protein"},
      {"measurement": "superoxide dismutase protein levels", "setting": "[4]; pH 8.0, p<0.05", "value": "reduced the pH-induced decline in superoxide dismutase levels"},
      {"measurement": "superoxide dismutase protein levels", "setting": "[4]; pH 8.4, p<0.01", "value": "reduced the pH-induced decline in superoxide dismutase levels"},
      {"measurement": "total number of cells vs vehicle", "setting": "[5]; 24 hrs, any pH condition", "value": "no significant differences in the total number of cells"},
      {"measurement": "total cell numbers relative to vehicle", "setting": "[5]; pH 6.8", "value": "increased the number of cells"},
      {"measurement": "total cell numbers relative to vehicle", "setting": "[5]; pH 6.8, listed as TCAP", "value": "inhibited the decrease in total cell numbers"},
      {"measurement": "total cell numbers relative to vehicle", "setting": "[5]; pH 8.0", "value": "increased the number of cells"},
      {"measurement": "total cell numbers relative to vehicle", "setting": "[5]; pH 8.0, listed as TCAP", "value": "inhibited the decrease in total cell numbers"},
      {"measurement": "total cell numbers relative to vehicle", "setting": "[5]; pH 8.4", "value": "increased the number of cells"},
      {"measurement": "total cell numbers relative to vehicle", "setting": "[5]; pH 8.4, listed as TCAP", "value": "inhibited the decrease in total cell numbers"},
      {"measurement": "Akt phosphorylation (serine 473) on western blot", "setting": "[6]", "value": "no bands in any samples; also recorded: no indication of AKT phosphorylation"},
      {"measurement": "cell viability by trypan blue uptake", "setting": "[7]; pH 6.8", "value": "significant decrease in the number of cells that took up the trypan blue stain"},
      {"measurement": "cell viability by trypan blue uptake", "setting": "[7]; pH 6.8, listed as TCAP", "value": "increased the number of viable cells"},
      {"measurement": "cell viability by trypan blue uptake", "setting": "[7]; pH 8.0", "value": "significant decrease in the number of cells that took up the trypan blue stain"},
      {"measurement": "cell viability by trypan blue uptake", "setting": "[7]; pH 8.0, listed as TCAP", "value": "increased the number of viable cells"},
      {"measurement": "cell viability by trypan blue uptake", "setting": "[7]; pH 8.4", "value": "significant decrease in the number of cells that took up the trypan blue stain"},
      {"measurement": "cell viability by trypan blue uptake", "setting": "[7]; pH 8.4, listed as TCAP", "value": "increased the number of viable cells"}
    ]}
  ]
}
